Results reported in the NIST ThermoML archive (doi:10.1021/je501133u).

Assay: xn = mol fraction of the nth substance listed
Settings: 100 kPa, Liquid; for viscosity: Falling or rolling sphere viscometry; for mass density: Vibrating tube method

CCCCCCCO [heptan-1-ol] + CCO
Settings | mass density [kg/m3] | viscosity [mPa·s]
293.15 K, x2 = 0 | 822.3 | 7.15
293.15 K, x2 = 0.1 | 820.6 | 6.21
293.15 K, x2 = 0.2004 | 818.7 | 5.36
293.15 K, x2 = 0.3007 | 816.9 | 4.63
293.15 K, x2 = 0.3995 | 814.7 | 4.04
293.15 K, x2 = 0.5007 | 812.1 | 3.41
293.15 K, x2 = 0.5995 | 809 | 2.85
293.15 K, x2 = 0.7001 | 805.5 | 2.34
293.15 K, x2 = 0.8002 | 801.4 | 1.9
293.15 K, x2 = 0.9003 | 796.5 | 1.52
298.15 K, x2 = 0 | 818.8 | 6.07
298.15 K, x2 = 0.1 | 817.1 | 5.29
298.15 K, x2 = 0.2004 | 815.1 | 4.59
298.15 K, x2 = 0.3007 | 813.3 | 4
298.15 K, x2 = 0.3995 | 811.1 | 3.51
298.15 K, x2 = 0.5007 | 808.4 | 2.99
298.15 K, x2 = 0.5995 | 805.3 | 2.52
298.15 K, x2 = 0.7001 | 801.6 | 2.09
298.15 K, x2 = 0.8002 | 797.4 | 1.71
298.15 K, x2 = 0.9003 | 792.4 | 1.38
303.15 K, x2 = 0 | 815.3 | 5.18
303.15 K, x2 = 0.1 | 813.6 | 4.54
303.15 K, x2 = 0.2004 | 811.6 | 3.96
303.15 K, x2 = 0.3007 | 809.7 | 3.48
303.15 K, x2 = 0.3995 | 807.4 | 3.07
303.15 K, x2 = 0.5007 | 804.7 | 2.64
303.15 K, x2 = 0.5995 | 801.5 | 2.23
303.15 K, x2 = 0.7001 | 797.8 | 1.87
303.15 K, x2 = 0.8002 | 793.5 | 1.54
303.15 K, x2 = 0.9003 | 788.3 | 1.25
308.15 K, x2 = 0 | 811.8 | 4.44
308.15 K, x2 = 0.1 | 810 | 3.91
308.15 K, x2 = 0.2004 | 808 | 3.44
308.15 K, x2 = 0.3007 | 806 | 3.03
308.15 K, x2 = 0.3995 | 803.8 | 2.7
308.15 K, x2 = 0.5007 | 800.9 | 2.33
308.15 K, x2 = 0.5995 | 797.7 | 1.99
308.15 K, x2 = 0.7001 | 793.9 | 1.67
308.15 K, x2 = 0.8002 | 789.5 | 1.39
308.15 K, x2 = 0.9003 | 784.2 | 1.13
313.15 K, x2 = 0 | 808.2 | 3.83
313.15 K, x2 = 0.1 | 806.4 | 3.39
313.15 K, x2 = 0.2004 | 804.4 | 3
313.15 K, x2 = 0.3007 | 802.4 | 2.66
313.15 K, x2 = 0.3995 | 800.1 | 2.38
313.15 K, x2 = 0.5007 | 797.2 | 2.07
313.15 K, x2 = 0.5995 | 793.8 | 1.78
313.15 K, x2 = 0.7001 | 790 | 1.5
313.15 K, x2 = 0.8002 | 785.4 | 1.26
313.15 K, x2 = 0.9003 | 780 | 1.03
318.15 K, x2 = 0 | 804.6 | 3.33
318.15 K, x2 = 0.1 | 802.8 | 2.96
318.15 K, x2 = 0.2004 | 800.7 | 2.63
318.15 K, x2 = 0.3007 | 798.7 | 2.35
318.15 K, x2 = 0.3995 | 796.3 | 2.11
318.15 K, x2 = 0.5007 | 793.4 | 1.85
318.15 K, x2 = 0.5995 | 790 | 1.6
318.15 K, x2 = 0.7001 | 786 | 1.36
318.15 K, x2 = 0.8002 | 781.4 | 1.14
318.15 K, x2 = 0.9003 | 775.8 | 0.94
323.15 K, x2 = 0 | 801 | 2.89
323.15 K, x2 = 0.1 | 799.1 | 2.59
323.15 K, x2 = 0.2004 | 797 | 2.31
323.15 K, x2 = 0.3007 | 794.9 | 2.08
323.15 K, x2 = 0.3995 | 792.5 | 1.88
323.15 K, x2 = 0.5007 | 789.5 | 1.65
323.15 K, x2 = 0.5995 | 786 | 1.44
323.15 K, x2 = 0.7001 | 782 | 1.23
323.15 K, x2 = 0.8002 | 777.2 | 1.04
323.15 K, x2 = 0.9003 | 771.5 | 0.87
328.15 K, x2 = 0 | 797.4 | 2.54
328.15 K, x2 = 0.1 | 795.4 | 2.28
328.15 K, x2 = 0.2004 | 793.3 | 2.05
328.15 K, x2 = 0.3007 | 791.2 | 1.84
328.15 K, x2 = 0.3995 | 788.7 | 1.68
328.15 K, x2 = 0.5007 | 785.6 | 1.48
328.15 K, x2 = 0.5995 | 782.1 | 1.29
328.15 K, x2 = 0.7001 | 777.9 | 1.11
328.15 K, x2 = 0.8002 | 773 | 0.94
328.15 K, x2 = 0.9003 | 767.1 | 0.79

CCCCCCO [hexan-1-ol] + CCO
Settings | mass density [kg/m3] | viscosity [mPa·s]
293.15 K, x2 = 0 | 818.9 | 5.35
293.15 K, x2 = 0.1001 | 816.7 | 4.67
293.15 K, x2 = 0.2003 | 815.1 | 4.15
293.15 K, x2 = 0.3004 | 813.3 | 3.66
293.15 K, x2 = 0.4006 | 811.6 | 3.19
293.15 K, x2 = 0.4998 | 808.7 | 2.76
293.15 K, x2 = 0.6009 | 806 | 2.41
293.15 K, x2 = 0.7001 | 802.9 | 2.03
293.15 K, x2 = 0.7995 | 799.2 | 1.71
293.15 K, x2 = 0.9001 | 794.9 | 1.43
298.15 K, x2 = 0 | 815.3 | 4.56
298.15 K, x2 = 0.1001 | 813.1 | 4.02
298.15 K, x2 = 0.2003 | 811.5 | 3.6
298.15 K, x2 = 0.3004 | 809.7 | 3.19
298.15 K, x2 = 0.4006 | 807.9 | 2.8
298.15 K, x2 = 0.4998 | 805 | 2.44
298.15 K, x2 = 0.6009 | 802.2 | 2.14
298.15 K, x2 = 0.7001 | 798.9 | 1.81
298.15 K, x2 = 0.7995 | 795.2 | 1.54
298.15 K, x2 = 0.9001 | 790.8 | 1.29
303.15 K, x2 = 0 | 811.7 | 3.9
303.15 K, x2 = 0.1001 | 809.5 | 3.48
303.15 K, x2 = 0.2003 | 807.8 | 3.14
303.15 K, x2 = 0.3004 | 806 | 2.8
303.15 K, x2 = 0.4006 | 804.1 | 2.47
303.15 K, x2 = 0.4998 | 801.2 | 2.17
303.15 K, x2 = 0.6009 | 798.4 | 1.91
303.15 K, x2 = 0.7001 | 795 | 1.63
303.15 K, x2 = 0.7995 | 791.2 | 1.39
303.15 K, x2 = 0.9001 | 786.6 | 1.17
308.15 K, x2 = 0 | 808.1 | 3.36
308.15 K, x2 = 0.1001 | 805.9 | 3.03
308.15 K, x2 = 0.2003 | 804.2 | 2.75
308.15 K, x2 = 0.3004 | 802.3 | 2.47
308.15 K, x2 = 0.4006 | 800.4 | 2.19
308.15 K, x2 = 0.4998 | 797.4 | 1.93
308.15 K, x2 = 0.6009 | 794.5 | 1.71
308.15 K, x2 = 0.7001 | 791.1 | 1.47
308.15 K, x2 = 0.7995 | 787.1 | 1.26
308.15 K, x2 = 0.9001 | 782.5 | 1.07
313.15 K, x2 = 0 | 804.5 | 2.91
313.15 K, x2 = 0.1001 | 802.2 | 2.65
313.15 K, x2 = 0.2003 | 800.5 | 2.42
313.15 K, x2 = 0.3004 | 798.5 | 2.18
313.15 K, x2 = 0.4006 | 796.6 | 1.94
313.15 K, x2 = 0.4998 | 793.6 | 1.73
313.15 K, x2 = 0.6009 | 790.6 | 1.54
313.15 K, x2 = 0.7001 | 787.1 | 1.32
313.15 K, x2 = 0.7995 | 783 | 1.14
313.15 K, x2 = 0.9001 | 778.2 | 0.97
318.15 K, x2 = 0 | 800.8 | 2.54
318.15 K, x2 = 0.1001 | 798.5 | 2.33
318.15 K, x2 = 0.2003 | 796.7 | 2.14
318.15 K, x2 = 0.3004 | 794.8 | 1.94
318.15 K, x2 = 0.4006 | 792.7 | 1.73
318.15 K, x2 = 0.4998 | 789.7 | 1.55
318.15 K, x2 = 0.6009 | 786.6 | 1.39
318.15 K, x2 = 0.7001 | 783 | 1.2
318.15 K, x2 = 0.7995 | 778.9 | 1.04
318.15 K, x2 = 0.9001 | 774 | 0.89
323.15 K, x2 = 0 | 797.1 | 2.23
323.15 K, x2 = 0.1001 | 794.8 | 2.06
323.15 K, x2 = 0.2003 | 793 | 1.9
323.15 K, x2 = 0.3004 | 790.9 | 1.73
323.15 K, x2 = 0.4006 | 788.9 | 1.55
323.15 K, x2 = 0.4998 | 785.7 | 1.39
323.15 K, x2 = 0.6009 | 782.6 | 1.25
323.15 K, x2 = 0.7001 | 779 | 1.09
323.15 K, x2 = 0.7995 | 774.7 | 0.94
323.15 K, x2 = 0.9001 | 769.7 | 0.81
328.15 K, x2 = 0 | 793.4 | 1.97
328.15 K, x2 = 0.1001 | 791 | 1.82
328.15 K, x2 = 0.2003 | 789.2 | 1.69
328.15 K, x2 = 0.3004 | 787.1 | 1.54
328.15 K, x2 = 0.4006 | 784.9 | 1.39
328.15 K, x2 = 0.4998 | 781.8 | 1.25
328.15 K, x2 = 0.6009 | 778.6 | 1.13
328.15 K, x2 = 0.7001 | 774.8 | 0.99
328.15 K, x2 = 0.7995 | 770.4 | 0.86
328.15 K, x2 = 0.9001 | 765.3 | 0.75
